Data reported in patent US12495798B2, “Nicotinamide compound and herbicidal composition comprising compound” (KOREA RESEARCH INSTITUTE OF CHEMICAL TECHNOLOGY, priority 2019, dated 2025).

Tests used:
Assay type in all cases: in vivo
cocklebur [1] = assay: Herbicidal activity test against upland field weeds (foliar treatment test); design: key to Foliar treatment herbicidal activity, Cocklebur: 0 (no control); 100 (complete control); conditions: 50 g ai/ha, scale 0-100; for pest or weed control at 50 g/ha: Xanthium strumarium
Summary of the method: (§1)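 Weeds were raised from seed or rootstocks in horticultural soil in a greenhouse (30±5° C., 14/10 h light/dark), then foliage was hand-sprayed with compound at 50 or 75 g a.i./ha in 50% acetone with 0.1% Tween-20. Control was scored visually 0–100 against untreated plants after 14 days, or 21 if needed.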

black nightshade [2] = assay: Herbicidal activity test against upland field weeds (soil treatment test); design: key to Soil treatment herbicidal activity, black nightshade: 0 (no control); 100 (complete control); conditions: 50 g ai/ha, scale 0 (no control) to 100 (complete control)
Summary of the method: (§2)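 Pre-emergence test: seeds or rootstocks were sown in fertilized sandy loam, and the next day the soil surface was sprayed with compound at 50 or 75 g a.i./ha in 50% acetone/0.1% Tween-20. Plants were grown in a greenhouse (30±5 °C, 14/10 h light/dark), then visually scored 0–100 against untreated at 14 d (21 d if needed).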

bindweed = assay: as above; design: key to Soil treatment herbicidal activity, Bindweed: 0 (no control); 100 (complete control); conditions: 50 g ai/ha, scale 0 (no control) to 100 (complete control)
Summary of the method: as §2

cocklebur [3] = assay: as above; design: key to Soil treatment herbicidal activity, Cocklebur: 0 (no control); 100 (complete control); conditions: 50 g ai/ha, scale 0 (no control) to 100 (complete control)
Summary of the method: as §2

black nightshade [4] = assay: Herbicidal activity test against upland field weeds (foliar treatment test); design: key to Foliar treatment herbicidal activity, black nightshade: 0 (no control); 100 (complete control); conditions: 50 g ai/ha, scale 0-100; for pest or weed control at 50 g/ha: Solanum nigrum
Summary of the method: as §1

velvetleaf = assay: Herbicidal activity test against upland field weeds (soil treatment test); design: key to Soil treatment herbicidal activity, velvet leaf: 0 (no control); 100 (complete control); conditions: 50 g ai/ha, scale 0 (no control) to 100 (complete control)
Summary of the method: as §2

Structure (SMILES)	Soil treatment herbicidal activity, Cocklebur (cocklebur [3])	Foliar treatment herbicidal activity, black nightshade (black nightshade [4])	Soil treatment herbicidal activity, velvet leaf (velvetleaf)	pest or weed control at 50 g/ha (cocklebur [1]) [%]	pest or weed control at 50 g/ha (black nightshade [4]) [%]	also measured
Cn1nnnc1COc1nc(C(F)(F)F)ccc1C(=O)Nc1nnnn1C [Compound No. 1-1, N-(1-methyl-1H-tetrazol-5-yl)-2-((1-methyl-1H-tetrazol-5-yl)methoxy)-6-(trifluoromethyl)nicotinamide]	0	100	100			Foliar treatment herbicidal activity, Cocklebur (cocklebur [1]): 100; Soil treatment herbicidal activity, black nightshade (black nightshade [2]): 100; Soil treatment herbicidal activity, Bindweed (bindweed): 0
Cn1ncnc1COCc1nc(C(F)(F)F)ccc1C(=O)Nc1nnnn1C [Compound No. 1-102, 2-(((1-methyl-1H-1,2,4-triazol-5-yl)methoxy)methyl)-N-(1-methyl-1H-tetrazol-5-yl)-6-(trifluoromethyl)nicotinamide]	0			80	95	Soil treatment herbicidal activity, Bindweed (bindweed): 0; pest or weed control at 50 g/ha (velvetleaf; Abutilon theophrasti, read-out: Soil treatment herbicidal activity, velvet leaf): 40%
Cn1nnc(COCc2nc(C(F)(F)F)ccc2C(=O)N(C(=O)c2ccccc2)c2nnnn2C)n1 [Compound No. 2-68, N-benzoyl-N-(1-methyl-1H-tetrazol-5-yl)-2-(((2-methyl-2H-tetrazol-5-yl)methoxy)methyl)-6-(trifluoromethyl)nicotinamide]	0	100	100			Foliar treatment herbicidal activity, Cocklebur (cocklebur [1]): 100; Soil treatment herbicidal activity, Bindweed (bindweed): 0
Cn1nnc(COCc2nc(C(F)(F)F)ccc2C(=O)N(c2nnnn2C)S(C)(=O)=O)n1 [Compound No. 2-69, N-(1-methyl-1H-tetrazol-5-yl)-2-(((2-methyl-2H-tetrazol-5-yl)methoxy)methyl)-N-(methylsulfonyl)-6-(trifluoromethyl)nicotinamide]	0		100	95	95	pest or weed control at 50 g/ha (bindweed): 70%
Cn1nnc(COCc2nc(C(F)(F)Cl)ccc2C(=O)Nc2nnnn2C)n1 [Compound No. 2-78, 6-(chlorodifluoromethyl)-N-(1-methyl-1H-tetrazol-5-yl)-2-(((2-methyl-2H-tetrazol-5-yl)methoxy)methyl)nicotinamide]			100	60	95	pest or weed control at 50 g/ha (bindweed): 40%; pest or weed control at 50 g/ha (cocklebur [3]; Xanthium strumarium): 70%
Cn1nnc(COCc2nc(C(F)(F)C(F)(F)F)ccc2C(=O)Nc2nnnn2C)n1 [Compound No. 2-81, N-(1-methyl-1H-tetrazol-5-yl)-2-(((2-methyl-2H-tetrazol-5-yl)methoxy)methyl)-6-(perfluoroethyl)nicotinamide]	100		100	95	95	pest or weed control at 50 g/ha (bindweed): 70%
CON(Cc1nnn(C)n1)Cc1nc(C(F)(F)F)ccc1C(=O)Nc1nnnn1C [Compound No. 2-97, 2-((methoxy((2-methyl-2H-tetrazol-5-yl)methyl)amino)methyl)-N-(1-methyl-1H-tetrazol-5-yl)-6-(trifluoromethyl)nicotinamide]		100		95		
Cn1nnc(CSCc2nc(C(F)(F)F)ccc2C(=O)Nc2nnnn2C)n1 [Compound No. 2-102, N-(1-methyl-1H-tetrazol-5-yl)-2-((((2-methyl-2H-tetrazol-5-yl)methyl)thio)methyl)-6-(trifluoromethyl)nicotinamide]		100	100			Foliar treatment herbicidal activity, Cocklebur (cocklebur [1]): 100; Soil treatment herbicidal activity, black nightshade (black nightshade [2]): 100
Cn1nnc(COCc2nc(C(F)(F)F)ccc2C(=S)Nc2nnnn2C)n1 [Compound No. 2-106, N-(1-methyl-1H-tetrazol-5-yl)-2-(((2-methyl-2H-tetrazol-5-yl)methoxy)methyl)-6-(trifluoromethyl)pyridin-3-carbothioamide]	100		100	95	95	pest or weed control at 50 g/ha (bindweed): 98%
Cn1nnc(CSCc2nc(C(F)(F)F)ccc2C(=O)N(c2nnnn2C)S(C)(=O)=O)n1 [Compound No. 2-110, N-(1-methyl-1H-tetrazol-5-yl)-2-((((2-methyl-2H-tetrazol-5-yl)methyl)thio)methyl)-N-(methylsulfonyl)-6-(trifluoromethyl)nicotinamide]		100		95		
Cc1nc(COCc2nc(C(F)(F)F)ccc2C(=O)Nc2nnnn2C)nn1C [Compound No. 2-116, 2-(((1,5-dimethyl-1H-1,2,4-triazol-3-yl)methoxy)methyl)-N-(1-methyl-1H-tetrazol-5-yl)-6-(trifluoromethyl)nicotinamide]		100		98		
Cc1nc(COCc2nc(C(F)(F)F)ccc2C(=S)Nc2nnnn2C)nn1C [Compound No. 2-117, 2-(((1,5-dimethyl-1H-1,2,4-triazol-3-yl)methoxy)methyl)-N-(1-methyl-1H-tetrazol-5-yl)-6-(trifluoromethyl)pyridin-3-carbothioamide]		100		90		
COc1nc(COCc2nc(C(F)(F)F)ccc2C(=O)Nc2nnnn2C)nn1C [Compound No. 2-129, 2-(((5-methoxy-1-methyl-1H-1,2,4-triazol-3-yl)methoxy)methyl)-N-(1-methyl-1H-tetrazol-5-yl)-6-(trifluoromethyl)nicotinamide]		100		70		Soil treatment herbicidal activity, black nightshade (black nightshade [2]): 100
Cn1nc(COCc2nc(C(F)(F)F)ccc2C(=O)Nc2nnnn2C)nc1C#N [Compound No. 2-134, 2-(((5-cyano-1-methyl-1H-1,2,4-triazol-3-yl)methoxy)methyl)-N-(1-methyl-1H-tetrazol-5-yl)-6-(trifluoromethyl)nicotinamide]		100		50		
Cn1nc(COCc2nc(C(F)(F)F)ccc2C(=O)Nc2nnnn2C)nc1Cl [Compound No. 2-135, 2-(((5-chloro-1-methyl-1H-1,2,4-triazol-3-yl)methoxy)methyl)-N-(1-methyl-1H-tetrazol-5-yl)-6-(trifluoromethyl)nicotinamide]	0		0	95	98	pest or weed control at 50 g/ha (black nightshade [2]; Solanum nigrum): 60%
Cn1nc(COCc2nc(C(F)(F)F)ccc2C(=O)Nc2nnnn2C)nc1Br [Compound No. 2-136, 2-(((5-bromo-1-methyl-1H-1,2,4-triazol-3-yl)methoxy)methyl)-N-(1-methyl-1H-tetrazol-5-yl)-6-(trifluoromethyl)nicotinamide]				95	95	
CCOC(=O)OC(C)n1nnn(C)c1=NC(=O)c1ccc(C(F)(F)F)nc1CSCc1nnn(C)n1 (centres unmarked) [Compound No. 4-10, ethyl (1-(4-methyl-5-((2-((((2-methyl-2H-tetrazol-5-yl)methyl)thio)methyl)-6-(trifluoromethyl)nicotinoyl)imino)-4,5-dihydro-1H-tetrazol-1-yl)ethyl)carbonate]		100	100			Foliar treatment herbicidal activity, Cocklebur (cocklebur [1]): 100; Soil treatment herbicidal activity, black nightshade (black nightshade [2]): 100; Soil treatment herbicidal activity, Bindweed (bindweed): 40
